The results in this text go back to doi:10.1101/2020.02.10.942029v1 (biorxiv, 2020).

The target of the experiment is human CatSper (CatSper channel, cation channel of sperm) (Homo sapiens, UniProt Q7RTX7+Q86XQ3+Q8NEC5+Q96P56). The experiment is described as follows: whole-cell patch clamp of human sperm. In kind it is cell-based. To be noted: activator; 20 μM, NaDVF, pHi 7.3, room temperature.

As for `CCCCCCOC(=O)[C@]1(O)C[C@@H]2O[C@@]1(C)n1c3ccccc3c3c4c(c5c6ccccc6n2c5c31)C(=O)NC4` [KT 5720], the “fold current enhancement at -80 mV” value was 1.48 ± 0.47 fold.
